Assay results published in ChEMBL document CHEMBL1201862, “PubChem BioAssay data set” (2004).
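Step 1: Grow cells in 96-well plates. Step 2: Expose to compound for 48 hours at 5 concentrations. Step 3: Interpolate endpoints linearly; if unreached, use highest concentration. Here, GI50 denotes the concentration required for 50% inhibition of growth.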 Calls of active or inactive are those of the source. Cut-off read from the data, not from the text of the source: active = GI50 up to about 1.1 µM and inactive = higher.

Assays:
Assay in all cases: growth of human tumour cells (NCI), 48 h
NCI-H23 = tested on: NCI-H23
SF-268 = tested on: SF-268
KM12 = tested on: KM12
A549 = tested on: A549
NCI-H460 = tested on: NCI-H460
SF-539 = tested on: SF-539
RXF 393 = tested on: RXF 393
OVCAR-4 = tested on: OVCAR-4
K562 = tested on: K562
SK-MEL-28 = tested on: SK-MEL-28
LOX IMVI = tested on: LOX IMVI
HCC 2998 = tested on: HCC 2998
UACC-62 = tested on: UACC-62
786-0 = tested on: 786-0
UO-31 = tested on: UO-31
ACHN = tested on: ACHN
Malme-3M = tested on: Malme-3M
HL-60 = tested on: HL-60
SK-MEL-2 = tested on: SK-MEL-2
SNB-75 = tested on: SNB-75
IGROV-1 = tested on: IGROV-1
SN12C = tested on: SN12C
NCI-H522 = tested on: NCI-H522
NCI-H226 = tested on: NCI-H226
TK-10 = tested on: TK-10
HCT-116 = tested on: HCT-116
KM-20L2 = tested on: KM-20L2
SK-MEL-5 = tested on: SK-MEL-5
DMS-273 = tested on: DMS-273
SR = tested on: SR
HT-29 = tested on: HT-29
HOP-62 = tested on: HOP-62
M19-MEL = tested on: M19-MEL
M14 = tested on: M14
SNB-78 = tested on: SNB-78
CCRF-CEM = tested on: CCRF-CEM
UACC-257 = tested on: UACC-257
EKVX = tested on: EKVX
COLO 205 = tested on: COLO 205
MOLT-4 = tested on: MOLT-4
SW-620 = tested on: SW-620
HOP-92 = tested on: HOP-92
DLD-1 = tested on: DLD-1
XF498 = tested on: XF498
LXFL 529 = tested on: LXFL 529
U-251 = tested on: U-251
OVCAR-3 = tested on: OVCAR-3
HCT-15 = tested on: HCT-15
SF-295 = tested on: SF-295
OVCAR-8 = tested on: OVCAR-8
SNB-19 = tested on: SNB-19
SK-OV-3 = tested on: SK-OV-3
A498 = tested on: A498
CAKI-1 = tested on: CAKI-1
OVCAR-5 = tested on: OVCAR-5
RPMI-8226 = tested on: RPMI-8226
DMS-114 = tested on: DMS-114

CCC(C)Cn1c(C)nc2c1C(=O)c1ccccc1C2=O (configuration not stated)
GI50 (NCI-H23): 20.7 µM (inactive) | GI50 (SF-268): 23.9 µM (inactive) | GI50 (KM12): 27.9 µM (inactive) | GI50 (A549): 31.5 µM (inactive) | GI50 (NCI-H460): 14.8 µM (inactive) | GI50 (SF-539): 17.7 µM (inactive) | GI50 (RXF 393): 33.9 µM (inactive) | GI50 (OVCAR-4): 38 µM (inactive) | GI50 (K562): 5.42 µM (inactive) | GI50 (SK-MEL-28): 37.2 µM (inactive) | GI50 (LOX IMVI): 19.4 µM (inactive) | GI50 (HCC 2998): 47.4 µM (inactive) | GI50 (UACC-62): 9.98 µM (inactive) | GI50 (786-0): 23.1 µM (inactive) | GI50 (UO-31): 24.5 µM (inactive) | GI50 (ACHN): 36.1 µM (inactive) | GI50 (Malme-3M): 27.7 µM (inactive) | GI50 (HL-60): 5.06 µM (inactive) | GI50 (SK-MEL-2): 33.1 µM (inactive) | GI50 (SNB-75): 28.6 µM (inactive) | GI50 (IGROV-1): 42.5 µM (inactive) | GI50 (SN12C): 36.1 µM (inactive) | GI50 (NCI-H522): 30 µM (inactive) | GI50 (NCI-H226): > 100 µM (inactive) | GI50 (TK-10): 41.4 µM (inactive) | GI50 (HCT-116): > 10 µM (inactive) | GI50 (KM-20L2): 31.2 µM (inactive) | GI50 (SK-MEL-5): 15 µM (inactive) | GI50 (DMS-273): 9.86 µM (inactive) | GI50 (SR): 2.81 µM (inactive) | GI50 (HT-29): 28.2 µM (inactive) | GI50 (HOP-62): 23.8 µM (inactive) | GI50 (M19-MEL): 18.1 µM (inactive) | GI50 (M14): 42.3 µM (inactive) | GI50 (SNB-78): 34.4 µM (inactive) | GI50 (CCRF-CEM): 21.4 µM (inactive) | GI50 (UACC-257): 23.5 µM (inactive) | GI50 (EKVX): 31.9 µM (inactive) | GI50 (COLO 205): 19.8 µM (inactive) | GI50 (MOLT-4): 2.91 µM (inactive) | GI50 (SW-620): 38.7 µM (inactive) | GI50 (HOP-92): 20.4 µM (inactive) | GI50 (DLD-1): 24.6 µM (inactive) | GI50 (XF498): 22.5 µM (inactive) | GI50 (LXFL 529): 17 µM (inactive) | GI50 (U-251): 20.5 µM (inactive) | GI50 (OVCAR-3): 23.3 µM (inactive) | GI50 (HCT-15): 17.5 µM | GI50 (SF-295): 38.8 µM (inactive) | GI50 (OVCAR-8): 32.9 µM (inactive) | GI50 (SNB-19): 53.6 µM (inactive) | GI50 (SK-OV-3): 54.3 µM (inactive)

CCNc1cnc2c(n1)c(=O)n(C)c(=O)n2C
GI50 (NCI-H23): > 100 µM (inactive) | GI50 (SF-268): > 100 µM (inactive) | GI50 (KM12): > 100 µM (inactive) | GI50 (A549): > 100 µM (inactive) | GI50 (NCI-H460): > 100 µM (inactive) | GI50 (SF-539): > 100 µM (inactive) | GI50 (RXF 393): 84.9 µM (inactive) | GI50 (A498): > 100 µM (inactive) | GI50 (OVCAR-4): > 100 µM (inactive) | GI50 (K562): > 100 µM (inactive) | GI50 (SK-MEL-28): > 100 µM (inactive) | GI50 (HCC 2998): > 100 µM (inactive) | GI50 (UACC-62): > 100 µM (inactive) | GI50 (UO-31): > 100 µM (inactive) | GI50 (ACHN): > 100 µM (inactive) | GI50 (Malme-3M): > 100 µM (inactive) | GI50 (HL-60): > 100 µM (inactive) | GI50 (SK-MEL-2): > 100 µM (inactive) | GI50 (SNB-75): 48.9 µM (inactive) | GI50 (IGROV-1): > 100 µM (inactive) | GI50 (SN12C): > 100 µM (inactive) | GI50 (NCI-H522): > 100 µM (inactive) | GI50 (TK-10): > 100 µM (inactive) | GI50 (HCT-116): > 100 µM (inactive) | GI50 (KM-20L2): > 100 µM (inactive) | GI50 (SK-MEL-5): > 100 µM (inactive) | GI50 (DMS-273): > 100 µM (inactive) | GI50 (HT-29): > 100 µM (inactive) | GI50 (HOP-62): > 100 µM (inactive) | GI50 (M19-MEL): > 100 µM (inactive) | GI50 (M14): > 100 µM (inactive) | GI50 (CAKI-1): > 100 µM (inactive) | GI50 (CCRF-CEM): > 100 µM (inactive) | GI50 (UACC-257): > 100 µM (inactive) | GI50 (EKVX): 34.1 µM (inactive) | GI50 (COLO 205): > 100 µM (inactive) | GI50 (MOLT-4): > 100 µM (inactive) | GI50 (SW-620): > 100 µM (inactive) | GI50 (OVCAR-5): > 100 µM (inactive) | GI50 (HOP-92): > 100 µM (inactive) | GI50 (DLD-1): > 100 µM (inactive) | GI50 (XF498): > 100 µM (inactive) | GI50 (LXFL 529): > 100 µM (inactive) | GI50 (U-251): > 100 µM (inactive) | GI50 (OVCAR-3): > 100 µM (inactive) | GI50 (HCT-15): > 100 µM | GI50 (SF-295): > 100 µM (inactive) | GI50 (OVCAR-8): > 100 µM (inactive) | GI50 (SNB-19): > 100 µM (inactive) | GI50 (RPMI-8226): > 100 µM (inactive) | GI50 (DMS-114): > 100 µM (inactive) | GI50 (SK-OV-3): > 100 µM (inactive)

CCN(CC)/[N+]([O-])=N/OC
GI50 (NCI-H23): > 100 µM (inactive) | GI50 (SF-268): > 100 µM (inactive) | GI50 (KM12): > 100 µM (inactive) | GI50 (A549): > 100 µM (inactive) | GI50 (NCI-H460): > 100 µM (inactive) | GI50 (SF-539): > 100 µM (inactive) | GI50 (RXF 393): > 100 µM (inactive) | GI50 (A498): > 100 µM (inactive) | GI50 (K562): > 100 µM (inactive) | GI50 (SK-MEL-28): > 100 µM (inactive) | GI50 (LOX IMVI): > 100 µM (inactive) | GI50 (HCC 2998): > 100 µM (inactive) | GI50 (UACC-62): > 100 µM (inactive) | GI50 (UO-31): > 100 µM (inactive) | GI50 (ACHN): > 100 µM (inactive) | GI50 (HL-60): > 100 µM (inactive) | GI50 (SK-MEL-2): > 100 µM (inactive) | GI50 (IGROV-1): > 100 µM (inactive) | GI50 (SN12C): > 100 µM (inactive) | GI50 (NCI-H522): > 100 µM (inactive) | GI50 (NCI-H226): > 100 µM (inactive) | GI50 (TK-10): > 100 µM (inactive) | GI50 (HCT-116): > 100 µM (inactive) | GI50 (KM-20L2): > 100 µM (inactive) | GI50 (SK-MEL-5): > 100 µM (inactive) | GI50 (DMS-273): > 100 µM (inactive) | GI50 (SR): > 100 µM (inactive) | GI50 (HT-29): > 100 µM (inactive) | GI50 (HOP-62): > 100 µM (inactive) | GI50 (M19-MEL): > 100 µM (inactive) | GI50 (M14): > 100 µM (inactive) | GI50 (SNB-78): > 100 µM (inactive) | GI50 (CCRF-CEM): > 100 µM (inactive) | GI50 (UACC-257): > 100 µM (inactive) | GI50 (EKVX): > 100 µM (inactive) | GI50 (MOLT-4): > 100 µM (inactive) | GI50 (SW-620): > 100 µM (inactive) | GI50 (OVCAR-5): > 100 µM (inactive) | GI50 (HOP-92): > 100 µM (inactive) | GI50 (XF498): > 100 µM (inactive) | GI50 (LXFL 529): > 100 µM (inactive) | GI50 (U-251): > 100 µM (inactive) | GI50 (OVCAR-3): > 100 µM (inactive) | GI50 (HCT-15): > 100 µM | GI50 (SF-295): > 100 µM (inactive) | GI50 (OVCAR-8): > 100 µM (inactive) | GI50 (SNB-19): > 100 µM (inactive) | GI50 (SK-OV-3): > 100 µM (inactive)
